# Patent publication US12215085B2 (priority 2019, dated 2025)
# Marks after values point to notes of the source that are not given here.
# How the values were obtained:
# [1] = tested on: rats with beta-amyloid induced senile dementia; experiment: Brain pathological examination, beta-amyloid induced senile dementia rats; type: in vivo, rat
# [2] = Acute toxicity LD50, mouse; conditions: in vivo, po
# mouse = experiment: Acute toxicity LD50, mouse; conditions: clinical daily dosage 8 mg/60 kg human/day, per kilogram body weight
# [3] = 24 hours equilibrium solubility in water; type: physicochemical; conditions: thermodynamic from solid, room temperature, initial concentration about 100 mg/mL, read-out: 24 hours equilibrium solubility in H2O
# Description: Step: 24 hours equilibrium solubility of the sample of Crystal Form A in water was tested at room temperature. In the experiment, after mixing the sample of crystal form with water to form a suspension (initial concentration was about 100 mg/mL), the stirring was carried out for 24 hours (1000 rpm) at room temperature, a supernatant obtained from the centrifugation was filtered and the solubility was measured, and the residual solid was subjected to the XRPD test.
# [4] = tested on: rats with beta-amyloid induced senile dementia; experiment: Step-down test, beta-amyloid induced senile dementia rats; type: in vivo, rat; conditions: 2.8 mg/kg, P<0.05
# rat = experiment: Acute toxicity LD50, rat; conditions: clinical daily dosage 8 mg/60 kg human/day, per kilogram body weight
# Acute toxicity LD50, rat = conditions: in vivo, po
# [5] = Physical and chemical stability (XRPD, HPLC); type: physicochemical
# Description: • (1) The physical and chemical stability evaluations were performed after Crystal Form A was placed in a closed condition at 80° C. for 24 hours. • (2) The physical and chemical stability evaluations were performed after Crystal Form A was placed in an open condition at 25° C./60% relative humidity and 40° C./75% relative humidity respectively for one week.
# The physical and chemical stabilities of the samples were tested by XRPD and HPLC.
# Wistar rats = experiment: Long-term toxicity, 27 weeks, Wistar rats
# Description: 120 Wistar rats were used, 30 rats per group, wherein half of them were males and half were females. The administration route was ig administration, once per day, 6-day administration per week, and a 27-week test period.
# [6] = tested on: rats with beta-amyloid induced senile dementia; experiment: Water maze test, beta-amyloid induced senile dementia rats; type: in vivo, rat; conditions: for adopted strategy for reaching the platform (the peripheral type and the random type %) / orientation angle for reaching the platform / speed for reaching the platform / swimming path length for reaching the platform / time for reaching the platform: succinate; for orientation angle for reaching the platform / speed for reaching the platform / swimming path length for reaching the platform / time for reaching the platform: x ± s
# [7] = 0.7, 1.4 and 2.8 mg/kg, Day 7, P<0.05 or P<0.01
# [8] = Day 1, 0.7 mg/kg intragastric, 0.7 mg/kg
# [9] = Day 1, 1.4 mg/kg intragastric, 1.4 mg/kg
# [10] = Day 1, 2.8 mg/kg intragastric, 2.8 mg/kg
# [11] = Day 2, 0.7 mg/kg intragastric, 0.7 mg/kg
# [12] = Day 2, 1.4 mg/kg intragastric, 1.4 mg/kg
# [13] = Day 2, 2.8 mg/kg intragastric, 2.8 mg/kg
smiles,measurement,setting,value
"Nc1c2c(nc3c1CCCC3)CCCC2.O=C(O)CCC(=O)O [Crystal Form A, 9-amino-1,2,3,4,5,6,7,8-octahydroacridine succinate]",pathological damage of cerebral cortex and hippocampus caused by beta-amyloid,[1]; high-dose group (2.8 mg/kg),could relieve the pathological damage
same,pathological changes of cortex and hippocampus compared with the model group,[1]; low and medium-dose groups (0.7 and 1.4 mg/kg),no obvious difference
same,LD50,[2],66.6 ± 3.3 mg/kg
same,LD50 as multiple of the clinical daily dosage,mouse,~499.5 times
same,solubility thermodynamic at 24 h,[3],72.9 mg/mL
same,step-down error number vs model group,[4]; Day 1 and Day 2,obviously reduced
same,error latency vs model group,[4]; Day 2,obviously prolonged
same,LD50 as multiple of the clinical daily dosage,rat,~824.3 times
same,LD50,"Acute toxicity LD50, rat",110 ± 9.1 mg/kg
same,crystal form after storage (XRPD),"[5]; 80° C. closed 24 hours, 25° C./60% relative humidity and 40° C./75% relative humidity open one week",unchanged
same,chemical purity after storage (HPLC),"[5]; all three test conditions: 80° C. closed 24 hours, 25° C./60% RH and 40° C./75% RH open one week",unchanged
same,toxic target organ for long-term administration,Wistar rats; 27 weeks intragastric,"could be the liver, but reversible"
same,animals died,"Wistar rats; high-dose group 30 mg/kg, 27 weeks",5 animals
same,non-toxic reaction dose,"Wistar rats; intragastric, 27 weeks",15 mg/kg
same,body weight of male and female rats vs control group,"Wistar rats; rat, in vivo",obviously reduced
same,"electrocardiogram PR interval, QRS interval, QT interval, T wave, heart rate vs control group","Wistar rats; rat, in vivo",no significant difference
same,general and microscopic examination of all organs,"Wistar rats; rat, in vivo",No obvious pathological changes caused by the drug toxicity
same,"general state, behavioral activity, mental state, fur, urine and feces, food (water) intake","Wistar rats; rat, in vivo",all normal
same,"hematology, blood biochemistry examination and each organ coefficient vs control group","Wistar rats; rat, in vivo",no obvious difference
same,rats with obvious elevation of the liver function index ALT,"Wistar rats; rat, in vivo",2 rats
same,latent period for reaching the platform vs model group,"[6]; 0.7 mg/kg, Day 1, P<0.05",obviously shortened
same,latent period for reaching the platform vs model group,"[6]; 1.4 mg/kg, Day 1 to Day 6, P<0.05 or P<0.01",obviously shortened
same,swimming path length for reaching the platform vs model group,"[6]; 1.4 mg/kg, Day 3 and Day 5, P<0.05",obviously shortened
same,percentage of the swimming path length in the platform area quadrants to the total swimming path length vs model group,"[6]; 1.4 mg/kg, Day 7, P<0.05",obviously increased
same,residence time in the platform quadrants vs model group,"[6]; 1.4 mg/kg, Day 7, P<0.05",obviously increased
same,orientation angle vs model group,"[6]; 2.8 mg/kg, Day 2, Day 3, Day 5 and Day 6, P<0.05 or P<0.01",obviously decreased
same,latent period for reaching the platform vs model group,"[6]; 2.8 mg/kg, Day 2 to Day 6, P<0.05 or P<0.01",obviously shortened
same,swimming path length for reaching the platform vs model group,"[6]; 2.8 mg/kg, Day 5 and Day 6, P<0.05",obviously shortened
same,swimming speed vs model group,"[6]; 0.7, 1.4 and 2.8 mg/kg, Day 1, P<0.05",obviously increased
same,average speed and orientation angle vs model group,"[6]; 0.7, 1.4 and 2.8 mg/kg, Day 7",not obviously changed
same,number of rats crossing the platform within 2 minutes vs model group,[6]; [7],obviously increased
same,residence time on the platform vs model group,[6]; [7],obviously increased
same,conversion from the peripheral type and the random type to the tendency type and the linear type in the strategy for looking for the platform,"[6]; 0.7, 1.4 and 2.8 mg/kg, P<0.05 or P<0.01",obviously increased
same,orientation angle vs model group,"[6]; 0.7 and 1.4 mg/kg, Day 2, P<0.05",obviously decreased
same,adopted strategy for reaching the platform (the peripheral type and the random type %),[6]; [8],87.50%
same,orientation angle for reaching the platform,[6]; [8],62.79 ± 19.80 °
same,speed for reaching the platform,[6]; [8],22.41 ± 7.84 cm/s
same,swimming path length for reaching the platform,[6]; [8],1169.52 ± 985.73 cm
same,time for reaching the platform,[6]; [8],51.79 ± 26.01 s
same,adopted strategy for reaching the platform (the peripheral type and the random type %),[6]; [9],92.50%
same,orientation angle for reaching the platform,[6]; [9],77.42 ± 21.94 °
same,speed for reaching the platform,[6]; [9],21.16 ± 5.82 cm/s
same,swimming path length for reaching the platform,[6]; [9],1022.59 ± 558.57 cm
same,time for reaching the platform,[6]; [9],47.00 ± 19.96 s
same,adopted strategy for reaching the platform (the peripheral type and the random type %),[6]; [10],95.50%
same,orientation angle for reaching the platform,[6]; [10],61.45 ± 13.71 °
same,speed for reaching the platform,[6]; [10],19.76 ± 2.88 cm/s
same,swimming path length for reaching the platform,[6]; [10],1215.28 ± 534.19 cm
same,time for reaching the platform,[6]; [10],65.22 ± 26.94 s
same,adopted strategy for reaching the platform (the peripheral type and the random type %),[6]; [11],68.75%
same,orientation angle for reaching the platform,[6]; [11],48.33 ± 25.33 °
same,speed for reaching the platform,[6]; [11],28.34 ± 10.42 cm/s
same,swimming path length for reaching the platform,[6]; [11],762.15 ± 878.65 cm
same,time for reaching the platform,[6]; [11],29.20 ± 28.52 s
same,adopted strategy for reaching the platform (the peripheral type and the random type %),[6]; [12],77.50%
same,orientation angle for reaching the platform,[6]; [12],53.95 ± 19.36 °
same,speed for reaching the platform,[6]; [12],24.65 ± 5.95 cm/s
same,swimming path length for reaching the platform,[6]; [12],657.63 ± 419.44 cm
same,time for reaching the platform,[6]; [12],29.60 ± 18.83 s
same,adopted strategy for reaching the platform (the peripheral type and the random type %),[6]; [13],67.50* %
same,orientation angle for reaching the platform,[6]; [13],42.58 ± 17.57 °
same,speed for reaching the platform,[6]; [13],23.62 ± 5.04 cm/s
same,swimming path length for reaching the platform,[6]; [13],717.16 ± 484.50 cm
